According to ChEMBL document CHEMBL4311999, “3-Hydrazinoisatin-based benzenesulfonamides as novel carbonic anhydrase inhibitors endowed with anticancer activity: Synthesis, in vitro biological evaluation and in silico insights” (Eur J Med Chem, 2019):
Values belong to the molecule of their own block, whether it stands above or below them.

Experiments:
Carbonic anhydrase 9 [1] = target: T1, Carbonic anhydrase 9 (Homo sapiens, UniProt Q16790); conditions: at 1 µM
Description: Inhibition of recombinant human carbonic anhydrase 9 at 1 uM preincubated for 15 mins by phenol red dye based stopped flow CO2 hydration assay (Rvb = 0%)

Carbonic anhydrase 9 [2] = target: T1, Carbonic anhydrase 9; conditions: at 0.1 µM
Description: Inhibition of recombinant human carbonic anhydrase 9 at 0.1 uM preincubated for 15 mins by phenol red dye based stopped flow CO2 hydration assay (Rvb = 0%)

Carbonic anhydrase 9 [3] = target: T1, Carbonic anhydrase 9; test: Inhibition of recombinant human carbonic anhydrase 9 preincubated for 15 mins by phenol red dye based stopped flow CO2 hydration assay
Carbonic anhydrase 9 [4] = target: T1, Carbonic anhydrase 9; conditions: at 0.01 µM
Description: Inhibition of recombinant human carbonic anhydrase 9 at 0.01 uM preincubated for 15 mins by phenol red dye based stopped flow CO2 hydration assay (Rvb = 0%)

Carbonic anhydrase 9 [5] = target: T1, Carbonic anhydrase 9; conditions: at 1 nM
Carbonic anhydrase 12 = Carbonic anhydrase 12 (Homo sapiens, UniProt O43570); test: Inhibition of recombinant human carbonic anhydrase 12 preincubated for 15 mins by phenol red dye based stopped flow CO2 hydration assay
Carbonic anhydrase 1 = Carbonic anhydrase 1 (Homo sapiens, UniProt P00915); test: Inhibition of recombinant human carbonic anhydrase 1 preincubated for 15 mins by phenol red dye based stopped flow CO2 hydration assay
Carbonic anhydrase 2 = Carbonic anhydrase 2 (Homo sapiens, UniProt P00918); test: Inhibition of recombinant human carbonic anhydrase 2 preincubated for 15 mins by phenol red dye based stopped flow CO2 hydration assay
EKVX = test: Growth inhibition of human EKVX cells at 10 uM incubated for 48 hrs by sulforhodamine B assay relative to control; type: functional; conditions: read-out: GI
MCF7 = test: Growth inhibition of human MCF7 cells at 10 uM incubated for 48 hrs by sulforhodamine B assay relative to control; type: functional; conditions: MCF7, 48 h, read-out: GI
KM12 = test: Growth inhibition of human KM12 cells at 10 uM incubated for 48 hrs by sulforhodamine B assay relative to control; type: functional; conditions: KM12, 48 h, read-out: GI
786-0 = test: Growth inhibition of human 786-0 cells at 10 uM incubated for 48 hrs by sulforhodamine B assay relative to control; type: functional; conditions: 786-0, 48 h, read-out: GI
A498 = test: Growth inhibition of human A498 cells at 10 uM incubated for 48 hrs by sulforhodamine B assay relative to control; type: functional; conditions: A498, 48 h, read-out: GI
UACC-62 = test: Growth inhibition of human UACC62 cells at 10 uM incubated for 48 hrs by sulforhodamine B assay relative to control; type: functional; conditions: UACC-62, 48 h, read-out: GI
UO-31 = test: Growth inhibition of human UO31 cells at 10 uM incubated for 48 hrs by sulforhodamine B assay relative to control; type: functional; conditions: UO-31, 48 h, read-out: GI
NCI-H522 = test: Growth inhibition of human NCI-H522 cells at 10 uM incubated for 48 hrs by sulforhodamine B assay relative to control; type: functional; conditions: NCI-H522, 48 h, read-out: GI
DU-145 = test: Growth inhibition of human DU145 cells at 10 uM incubated for 48 hrs by sulforhodamine B assay relative to control; type: functional; conditions: DU-145, 48 h, read-out: GI
SW-620 = test: Growth inhibition of human SW620 cells at 10 uM incubated for 48 hrs by sulforhodamine B assay relative to control; type: functional; conditions: SW-620, 48 h, read-out: GI
OVCAR-4 = test: Growth inhibition of human OVCAR4 cells at 10 uM incubated for 48 hrs by sulforhodamine B assay relative to control; type: functional; conditions: OVCAR-4, 48 h, read-out: GI
ACHN = test: Growth inhibition of human ACHN cells at 10 uM incubated for 48 hrs by sulforhodamine B assay relative to control; type: functional; conditions: read-out: GI
A549 = test: Growth inhibition of human A549/ATCC cells at 10 uM incubated for 48 hrs by sulforhodamine B assay relative to control; type: functional; conditions: A549, 48 h, read-out: GI
MOLT-4 = test: Growth inhibition of human MOLT4 cells at 10 uM incubated for 48 hrs by sulforhodamine B assay relative to control; type: functional; conditions: MOLT-4, 48 h, read-out: GI
SK-OV-3 = test: Growth inhibition of human SKOV3 cells at 10 uM incubated for 48 hrs by sulforhodamine B assay relative to control; type: functional; conditions: SK-OV-3, 48 h, read-out: GI
HCT-116 = test: Growth inhibition of human HCT116 cells at 10 uM incubated for 48 hrs by sulforhodamine B assay relative to control; type: functional; conditions: HCT-116, 48 h, read-out: GI
TK-10 = test: Growth inhibition of human TK10 cells at 10 uM incubated for 48 hrs by sulforhodamine B assay relative to control; type: functional; conditions: TK-10, 48 h, read-out: GI
IGROV-1 = test: Growth inhibition of human IGROV1 cells at 10 uM incubated for 48 hrs by sulforhodamine B assay relative to control; type: functional; conditions: IGROV-1, 48 h, read-out: GI
CAKI-1 = test: Growth inhibition of human Caki1 cells at 10 uM incubated for 48 hrs by sulforhodamine B assay relative to control; type: functional; conditions: CAKI-1, 48 h, read-out: GI
RPMI-8226 = test: Growth inhibition of human RPMI8226 cells at 10 uM incubated for 48 hrs by sulforhodamine B assay relative to control; type: functional; conditions: RPMI-8226, 48 h, read-out: GI
K562 = test: Growth inhibition of human K562 cells at 10 uM incubated for 48 hrs by sulforhodamine B assay relative to control; type: functional; conditions: K562, 48 h, read-out: GI
NCI-H226 = test: Growth inhibition of human NCI-H226 cells at 10 uM incubated for 48 hrs by sulforhodamine B assay relative to control; type: functional; conditions: NCI-H226, 48 h, read-out: GI
OVCAR-8 = test: Growth inhibition of human OVCAR8 cells at 10 uM incubated for 48 hrs by sulforhodamine B assay relative to control; type: functional; conditions: OVCAR-8, 48 h, read-out: GI
CCRF-CEM = test: Growth inhibition of human CCRF-CEM cells at 10 uM incubated for 48 hrs by sulforhodamine B assay relative to control; type: functional; conditions: read-out: GI
MDA-MB-468 = test: Growth inhibition of human MDA-MB-468 cells at 10 uM incubated for 48 hrs by sulforhodamine B assay relative to control; type: functional; conditions: MDA-MB-468, 48 h, read-out: GI
T47D = test: Growth inhibition of human T47D cells at 10 uM incubated for 48 hrs by sulforhodamine B assay relative to control; type: functional; conditions: read-out: GI
RXF 393 = test: Growth inhibition of human RXF393 cells at 10 uM incubated for 48 hrs by sulforhodamine B assay relative to control; type: functional; conditions: RXF 393, 48 h, read-out: GI
NCI/ADR-RES = test: Growth inhibition of human NCI/ADR-RES cells at 10 uM incubated for 48 hrs by sulforhodamine B assay relative to control; type: functional; conditions: read-out: GI
SR = test: Growth inhibition of human SR cells at 10 uM incubated for 48 hrs by sulforhodamine B assay relative to control; type: functional; conditions: read-out: GI
MDA-MB-231 = test: Growth inhibition of human MDA-MB-231 cells at 10 uM incubated for 48 hrs by sulforhodamine B assay relative to control; type: functional; conditions: MDA-MB-231, 48 h, read-out: GI
NCI-H460 = test: Growth inhibition of human NCI-H460 cells at 10 uM incubated for 48 hrs by sulforhodamine B assay relative to control; type: functional; conditions: NCI-H460, 48 h, read-out: GI
Hs-578T = test: Growth inhibition of human Hs 578T cells at 10 uM incubated for 48 hrs by sulforhodamine B assay relative to control; type: functional; conditions: read-out: GI
OVCAR-5 = test: Growth inhibition of human OVCAR5 cells at 10 uM incubated for 48 hrs by sulforhodamine B assay relative to control; type: functional; conditions: OVCAR-5, 48 h, read-out: GI
SF-539 = test: Growth inhibition of human SF539 cells at 10 uM incubated for 48 hrs by sulforhodamine B assay relative to control; type: functional; conditions: SF-539, 48 h, read-out: GI
SK-MEL-5 = test: Growth inhibition of human SK-MEL-5 cells at 10 uM incubated for 48 hrs by sulforhodamine B assay relative to control; type: functional; conditions: SK-MEL-5, 48 h, read-out: GI
SF-268 = test: Growth inhibition of human SF268 cells at 10 uM incubated for 48 hrs by sulforhodamine B assay relative to control; type: functional; conditions: SF-268, 48 h, read-out: GI
SNB-19 = test: Growth inhibition of human SNB19 cells at 10 uM incubated for 48 hrs by sulforhodamine B assay relative to control; type: functional; conditions: SNB-19, 48 h, read-out: GI
SNB-75 = test: Growth inhibition of human SNB75 cells at 10 uM incubated for 48 hrs by sulforhodamine B assay relative to control; type: functional; conditions: SNB-75, 48 h, read-out: GI
PC-3 = test: Growth inhibition of human PC3 cells at 10 uM incubated for 48 hrs by sulforhodamine B assay relative to control; type: functional; conditions: PC-3, 48 h, read-out: GI

Carbonic anhydrase 1, sequence (P00915 whole entry): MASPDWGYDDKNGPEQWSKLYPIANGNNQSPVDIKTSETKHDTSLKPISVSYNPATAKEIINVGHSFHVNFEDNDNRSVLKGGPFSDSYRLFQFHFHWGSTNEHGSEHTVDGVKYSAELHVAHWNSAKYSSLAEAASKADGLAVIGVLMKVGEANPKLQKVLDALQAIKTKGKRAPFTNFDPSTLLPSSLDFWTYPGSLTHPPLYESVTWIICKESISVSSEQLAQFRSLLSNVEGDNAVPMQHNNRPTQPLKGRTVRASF
Carbonic anhydrase 12, sequence (O43570 whole entry): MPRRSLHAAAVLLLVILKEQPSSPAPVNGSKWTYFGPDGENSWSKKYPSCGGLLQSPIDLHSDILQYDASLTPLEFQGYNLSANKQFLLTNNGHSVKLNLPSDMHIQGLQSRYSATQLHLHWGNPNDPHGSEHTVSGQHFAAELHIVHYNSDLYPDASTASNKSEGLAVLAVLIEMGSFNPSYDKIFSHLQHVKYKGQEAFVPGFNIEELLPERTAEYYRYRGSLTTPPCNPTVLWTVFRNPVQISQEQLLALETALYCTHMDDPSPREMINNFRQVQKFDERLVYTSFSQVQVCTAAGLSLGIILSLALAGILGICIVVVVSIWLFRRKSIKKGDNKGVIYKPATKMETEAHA

SMILES: CCCN1C(=O)/C(=N\Nc2ccc(S(N)(=O)=O)cc2)c2cc(Cl)ccc21
Ki (Carbonic anhydrase 9 [3]): 13.1 nM

SMILES: NS(=O)(=O)c1ccc(N/N=C2\C(=O)Nc3ccccc32)cc1
Ki (Carbonic anhydrase 9 [3]): 15.5 nM | Ki (Carbonic anhydrase 12): 30.1 nM | Ki (Carbonic anhydrase 1): 467 nM | Ki (Carbonic anhydrase 2): 63.3 nM

SMILES: NS(=O)(=O)c1ccc(N/N=C2\C(=O)Nc3ccc(Br)cc32)cc1
Ki (Carbonic anhydrase 9 [3]): 24.8 nM | Ki (Carbonic anhydrase 12): 65.9 nM | Ki (Carbonic anhydrase 1): 3710 nM | Ki (Carbonic anhydrase 2): 95.6 nM

SMILES: CCOC(=O)CN1C(=O)/C(=N\Nc2ccc(S(N)(=O)=O)cc2)c2cc(Cl)ccc21
inhibition (Carbonic anhydrase 9 [1]): 76% | inhibition of growth at 10 µM (EKVX): 16% | inhibition of growth at 10 µM (MCF7): 21% | inhibition (Carbonic anhydrase 9 [2]): 66% | inhibition of growth at 10 µM (KM12): 12% | Ki (Carbonic anhydrase 9 [3]): 38.8 nM | inhibition of growth at 10 µM (786-0): 10% | inhibition of growth at 10 µM (A498): 10% | inhibition of growth at 10 µM (UACC-62): 24% | inhibition (Carbonic anhydrase 9 [4]): 42% | inhibition (Carbonic anhydrase 9 [5]): 11% | inhibition of growth at 10 µM (UO-31): 18% | inhibition of growth at 10 µM (NCI-H522): 18% | inhibition of growth at 10 µM (DU-145): 10% | inhibition of growth at 10 µM (SW-620): 10% | inhibition of growth at 10 µM (OVCAR-4): 10% | inhibition of growth at 10 µM (ACHN): 30% | inhibition of growth at 10 µM (A549): 17% | inhibition of growth at 10 µM (MOLT-4): 21% | inhibition of growth at 10 µM (SK-OV-3): 10% | inhibition of growth at 10 µM (HCT-116): 10% | inhibition of growth at 10 µM (TK-10): 29% | inhibition of growth at 10 µM (IGROV-1): 13% | inhibition of growth at 10 µM (CAKI-1): 24% | inhibition of growth at 10 µM (RPMI-8226): 11% | inhibition of growth at 10 µM (K562): 15% | inhibition of growth at 10 µM (NCI-H226): 18%

SMILES: NS(=O)(=O)c1ccc(N/N=C2\C(=O)N(Cc3ccccc3)c3ccc(Br)cc32)cc1
inhibition of growth at 10 µM (OVCAR-8): 26% | inhibition of growth at 10 µM (CCRF-CEM): 19% | inhibition of growth at 10 µM (MDA-MB-468): 13% | inhibition of growth at 10 µM (MCF7): 23% | Ki (Carbonic anhydrase 9 [3]): 60.5 nM | inhibition of growth at 10 µM (786-0): 19% | inhibition of growth at 10 µM (UACC-62): 30% | inhibition of growth at 10 µM (T47D): 19% | inhibition of growth at 10 µM (RXF 393): 38% | inhibition of growth at 10 µM (NCI/ADR-RES): 13% | inhibition of growth at 10 µM (SR): 20% | inhibition of growth at 10 µM (MDA-MB-231): 23% | inhibition of growth at 10 µM (UO-31): 18% | inhibition of growth at 10 µM (NCI-H460): 20% | inhibition of growth at 10 µM (NCI-H522): 29% | inhibition of growth at 10 µM (OVCAR-4): 19% | inhibition of growth at 10 µM (ACHN): 22% | inhibition of growth at 10 µM (Hs-578T): 27% | inhibition of growth at 10 µM (OVCAR-5): 12% | inhibition of growth at 10 µM (SF-539): 25% | inhibition of growth at 10 µM (A549): 19% | inhibition of growth at 10 µM (SK-MEL-5): 17% | inhibition of growth at 10 µM (MOLT-4): 21% | inhibition of growth at 10 µM (HCT-116): 24% | inhibition of growth at 10 µM (SF-268): 13% | Ki (Carbonic anhydrase 1): > 10000 nM | inhibition of growth at 10 µM (SNB-19): 27% | inhibition of growth at 10 µM (SNB-75): 46% | inhibition of growth at 10 µM (PC-3): 21% | inhibition of growth at 10 µM (CAKI-1): 18% | inhibition of growth at 10 µM (RPMI-8226): 10% | inhibition of growth at 10 µM (NCI-H226): 33%

The next molecules have a lower Ki (Carbonic anhydrase 9 [3]) than those just listed; values first:

inhibition (Carbonic anhydrase 9 [1]): 81% | inhibition (Carbonic anhydrase 9 [2]): 75% | Ki (Carbonic anhydrase 9 [3]): 9.4 nM | inhibition (Carbonic anhydrase 9 [4]): 51% | inhibition (Carbonic anhydrase 9 [5]): 17%
SMILES: CN1C(=O)/C(=N\Nc2ccc(S(N)(=O)=O)cc2)c2ccccc21

Ki (Carbonic anhydrase 9 [3]): 8.4 nM
SMILES: CCN1C(=O)/C(=N\Nc2ccc(S(N)(=O)=O)cc2)c2cc(Cl)ccc21
